From patent publication US3952050A, “Cyclopent [a] indene compounds” (Allen & Hanburys Limited, priority 1972, dated 1976)
Where a name gives a salt, the structure may show the parent alone.

Tests used:
Type in all cases: in vivo
[1] = Phenylquinone Writhing test (analgetic action); settings: po
Source text: (§1) Particularly preferred meanings for the groups R1 and R2 are hydrogen C1-4 alkyl, in particular methyl, or benzyl. Particularly preferred meanings for R3 are hydrogen or C1-4alkyl in particular methyl. Particularly preferred meanings for R5 and R6 are hydrogen, C1-4 alkyl substituted by C1-4 alkylamino or by C1-4 dialkylamino or by phenyl or by 4-fluorobenzoyl or in which the groups together with the adjacent nitrogen atom form a morpholino or piperidino moiety; another preferred group for R5 or R6 is carbamoyl (--CONH2). Specific preferred compounds and salts are those the preparation of which is described in the Examples. The compounds of the invention have marked analgetic activity and are devoid of respiratory depressant action. […] These characteristics are often associated with non-narcotic analgetics in man. For example, in Table I, the compound 1,2,3,3aα,8,8aα-hexahydro-N-methylcyclopent[a]inden-1α-amine, maleate (AH 9197) and the diastero-isomer 1,2,3,3aα,-8,8aα-hexahydro-N-methylcyclopent[a]inden-1β-amine maleate (AH 8538) are compared with codeine in standard pharmacological tests for evaluating analgetic action. The N-ethyl analogue of AH 9197 (N-ethyl-1,2,3,3aα,8,8aα-hexahydrocyclopent[a]inden-1α-amine) maleate (AH 9903) is also included.

[2] = Hot plate test (analgetic action)
Source text: as §1

[3] = system: Dog Tooth-pulp; experiment: Dog Tooth-pulp Stimulation test (analgetic action); settings: Canis lupus familiaris, po, read-out: Minimum effective dose, Dog Tooth-pulp Stimulation
Source text: as §1

Row | SMILES | ED50 [1] | ED50 ([2]; po) | ED50 ([2]; sc) | minimal effective dose [3]
1 | COc1ccc2c3c1O[C@H]1[C@@H](O)C=C[C@H]4[C@@H](C2)N(C)CC[C@@]341 [Codeine, codeine, reference compound] | 5.8 mg/kg | 15.5 mg/kg | 11.8 mg/kg | 3.3 mg/kg
2 | CN[C@@H]1CC[C@@H]2c3ccccc3C[C@@H]21 (relative stereo) [Ex. 3, 1,2,3,3aα,8,8aα -Hexahydro-N-methylcyclopent[a]inden-1β-amine, maleate] | 11.9 mg/kg | – | 15 mg/kg | 5 mg/kg
3 | CCN[C@H]1CC[C@@H]2c3ccccc3C[C@H]12 (relative stereo) [Ex. 2, N-Ethyl-1,2,3,3aα,8,8aα-hexahydrocyclopent[a]inden-1α-amine, maleate] | 4.6 mg/kg | 9.5 mg/kg | 2.2 mg/kg | < 5 mg/kg
4 | CN[C@H]1CC[C@@H]2c3ccccc3C[C@H]12 (relative stereo) [Ex. 1, 1,2,3,3aα,8,8aα-Hexahydro-N-methylcyclopent[a]inden-1α-amine, maleate] | 7.4 mg/kg | 10 mg/kg | 0.44 mg/kg | 3.7 mg/kg
